From patent US9957271B2, “Substituted bicyclic aza-heterocycles and analogues as sirtuin modulators” (GlaxoSmithKline, LLC, priority 2012, dated 2018)

molecular target: T1, SIRT1 (Homo sapiens, UniProt Q96EB6); assay: Trp mass spectrometry assay of SIRT1 activity; format: biochemical; conditions: Trp assay; percent maximum fold activation; read-out: Trp % Fold Act
T1 sequence (Q96EB6 1-747): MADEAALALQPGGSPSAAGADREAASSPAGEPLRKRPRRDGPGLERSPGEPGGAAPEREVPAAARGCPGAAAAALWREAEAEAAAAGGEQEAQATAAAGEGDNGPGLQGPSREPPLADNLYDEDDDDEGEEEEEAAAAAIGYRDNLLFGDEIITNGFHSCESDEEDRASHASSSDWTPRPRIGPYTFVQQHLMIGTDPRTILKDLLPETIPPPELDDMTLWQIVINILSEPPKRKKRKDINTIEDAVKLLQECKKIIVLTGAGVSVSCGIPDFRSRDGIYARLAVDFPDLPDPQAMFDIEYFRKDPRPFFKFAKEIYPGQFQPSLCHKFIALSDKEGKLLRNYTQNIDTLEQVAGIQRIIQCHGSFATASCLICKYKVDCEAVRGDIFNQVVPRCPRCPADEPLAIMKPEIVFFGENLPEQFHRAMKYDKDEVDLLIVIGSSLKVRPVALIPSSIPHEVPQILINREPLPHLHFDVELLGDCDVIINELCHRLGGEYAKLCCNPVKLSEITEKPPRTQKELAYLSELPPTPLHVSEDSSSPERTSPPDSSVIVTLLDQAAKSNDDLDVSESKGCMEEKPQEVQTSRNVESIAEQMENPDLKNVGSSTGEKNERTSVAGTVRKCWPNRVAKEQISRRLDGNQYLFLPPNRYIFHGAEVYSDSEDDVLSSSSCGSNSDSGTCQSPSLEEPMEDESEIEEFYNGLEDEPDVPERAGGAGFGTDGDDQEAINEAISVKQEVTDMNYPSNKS
Outline: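 Activation readout: EC1.5 (concentration raising activity 50% over control) and percent maximum activation, from mass-spec quantitation of OAADPR or deacetylated Trp peptide. Reaction: 0.5 μM acetylated Trp peptide, 120 μM βNAD+, 10 nM bacterially expressed N-His SIRT1, pH 7.5 HEPES buffer with […], 25 min at 25° C.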

Row | Emax [%] | Structure (SMILES)
1 | ≥ 350 | C[C@@H]1CN(c2ccc3ncc(C(=O)Nc4cccnn4)n3n2)C[C@H](C)O1 [Compound 996]
2 | ≥ 350 | C[C@@H]1CN(c2ccc3ncc(C(=O)Nc4cncc(F)c4)n3n2)C[C@H](C)O1 [Compound 997]
3 | ≥ 350 | Cc1nc2ccc(N3CCC(C(F)(F)F)C3)nn2c1C(=O)Nc1cccnn1 (stereo not drawn) [Compound 998]
4 | ≥ 350 | O=C(Nc1ccccn1)c1cnn2ccc(N3CCCC3C(F)(F)F)nc12 (stereo not drawn) [Compound 999]

same assay, conditions: percent maximum fold activation of SIRT1; Trp peptide substrate; read-out: Trp % Fold Act

Row | Emax [%] | Structure (SMILES)
5 | ≥ 350 | O=C(Nc1cncc(F)c1)c1cnn2ccc(N3CCCC3C(F)(F)F)nc12 (stereo not drawn) [Compound 1001]
6 | ≥ 350 | C[C@@H]1CN(c2ccc3ncc(C(=O)Nc4cccnc4)n3n2)CCO1 [Compound 1002]
7 | ≥ 350 | C[C@@H]1CN(c2ccc3ncc(C(=O)Nc4cccnn4)n3n2)CCO1 [Compound 1003]
8 | ≥ 350 | O=C(Nc1cccnc1)c1cnn2ccc(N3CCCC(C(F)(F)F)C3)nc12 (stereo not drawn) [Compound 1007]
9 | ≥ 350 | O=C(Nc1ccccn1)c1cnn2ccc(N3CCCC(C(F)(F)F)C3)nc12 (stereo not drawn) [Compound 1008]
10 | ≥ 350 | O=C(Nc1cccnn1)c1cnn2ccc(N3CCC(C(F)(F)F)C3)nc12 (stereo not drawn) [Compound 1014]
11 | ≥ 350 | Cc1nc2ccc(N3CCC[C@H]3C(F)(F)F)nn2c1C(=O)Nc1cncc(F)c1 [Compound 1017]
12 | ≥ 350 | O=C(Nc1cnccn1)c1cnn2ccc(N3CCC[C@H]3C(F)(F)F)nc12 [Compound 1031]
13 | ≥ 350 | Cc1nc(NC(=O)c2c(C)nn3ccc(N4CCC[C@H]4C(F)(F)F)nc23)sc1C [Compound 1033]
14 | ≥ 350 | Cc1nn2ccc(N3CCC[C@H]3C(F)(F)F)nc2c1C(=O)Nc1cccnn1 [Compound 1034]
15 | ≥ 350 | Cc1nn2ccc(N3CCC[C@H]3C(F)(F)F)nc2c1C(=O)Nc1ccccn1 [Compound 1035]
16 | < 350 | Cc1nc(NC(=O)c2cnn3ccc(N4CCCC4C)nc23)sc1C (stereo not drawn) [Compound 1038]
17 | ≥ 350 | CC1CCCN1c1ccn2ncc(C(=O)Nc3cccnn3)c2n1 (stereo not drawn) [Compound 1040]
18 | < 350 | CC1CCCN1c1ccn2ncc(C(=O)Nc3cnccn3)c2n1 (stereo not drawn) [Compound 1041]
19 | ≥ 350 | CC1CCCN1c1ccn2ncc(C(=O)Nc3cccnc3)c2n1 (stereo not drawn) [Compound 1044]
20 | < 350 | Cc1cncc(NC(=O)c2cnn3ccc(N4CCCC4C)nc23)c1 (stereo not drawn) [Compound 1045]
21 | ≥ 350 | Cc1nn2ccc(N3CCC[C@H]3C(F)(F)F)nc2c1C(=O)Nc1ccncn1 [Compound 1048]
22 | ≥ 350 | COc1nccc(NC(=O)c2c(C)nn3ccc(N4CCC[C@H]4C(F)(F)F)nc23)n1 [Compound 1049]
23 | < 350 | COc1nccc(NC(=O)c2cnc3ccc(N4CCC[C@@H]4C)nn23)n1 [Compound 1051]
24 | < 350 | C[C@H]1CCCN1c1ccc2ncc(C(=O)Nc3ccc(F)cn3)n2n1 [Compound 1052]
25 | ≥ 350 | C[C@H]1CCCN1c1ccc2ncc(C(=O)Nc3ccccn3)n2n1 [Compound 1053]
26 | ≥ 350 | C[C@H]1CCCN1c1ccc2ncc(C(=O)Nc3cccnn3)n2n1 [Compound 1055]
27 | < 350 | C[C@H]1CCCN1c1ccc2ncc(C(=O)Nc3cncc(F)c3)n2n1 [Compound 1059]
28 | ≥ 350 | O=C(Nc1cnccn1)c1cnn2ccc(N3CCC(C(F)(F)F)CC3)nc12 [Compound 1061]
29 | ≥ 350 | O=C(Nc1cccnn1)c1cnn2ccc(N3CCC(C(F)(F)F)CC3)nc12 [Compound 1062]
30 | ≥ 350 | COc1nccc(NC(=O)c2cnn3ccc(N4CCC(C(F)(F)F)CC4)nc23)n1 [Compound 1064]
31 | ≥ 350 | Cc1nc(NC(=O)c2cnn3ccc(N4CCC(C(F)(F)F)CC4)nc23)sc1C [Compound 1065]
32 | ≥ 350 | O=C(Nc1cccnc1)c1cnn2ccc(N3CCC(C(F)(F)F)CC3)nc12 [Compound 1066]

The next lines start with the compound.

Row | Structure (SMILES) | Emax [%]
33 | O=C(Nc1cccnc1)c1cnn2ccc(N3CCCC3C(F)(F)F)nc12 (stereo not drawn) [Compound 1000] | ≥ 350
34 | C[C@@H]1CN(c2ccc3ncc(C(=O)Nc4cncc(F)c4)n3n2)CCO1 [Compound 1004] | ≥ 350
35 | Cc1nc2ccc(N3CCC(F)(F)C3)nn2c1C(=O)Nc1cccnn1 [Compound 1005] | ≥ 350
36 | Cc1nc2ccc(N3CCCC3C(F)(F)F)nn2c1C(=O)Nc1cccnn1 (stereo not drawn) [Compound 1006] | ≥ 350
37 | O=C(Nc1cncc(F)c1)c1cnn2ccc(N3CCCC(C(F)(F)F)C3)nc12 (stereo not drawn) [Compound 1009] | ≥ 350
38 | O=C(Nc1cncc(F)c1)c1cnn2ccc(N3CCCCC3C(F)(F)F)nc12 (stereo not drawn) [Compound 1010] | ≥ 350
39 | O=C(Nc1ccccn1)c1cnn2ccc(N3CCC(C(F)(F)F)C3)nc12 (stereo not drawn) [Compound 1011] | ≥ 350
40 | O=C(Nc1cccnc1)c1cnn2ccc(N3CCC(C(F)(F)F)C3)nc12 (stereo not drawn) [Compound 1012] | ≥ 350
41 | O=C(Nc1cncc(F)c1)c1cnn2ccc(N3CCC(C(F)(F)F)C3)nc12 (stereo not drawn) [Compound 1013] | ≥ 350
42 | Cc1nc2ccc(N3CCC[C@H]3C(F)(F)F)nn2c1C(=O)Nc1ccccn1 [Compound 1015] | ≥ 350
43 | Cc1nc2ccc(N3CCC[C@H]3C(F)(F)F)nn2c1C(=O)Nc1cccnc1 [Compound 1016] | ≥ 350
44 | Cc1nc2ccc(N3CCC[C@H]3C(F)(F)F)nn2c1C(=O)Nc1cccnn1 [Compound 1018] | ≥ 350
45 | O=C(Nc1cccnc1)c1cnc2ccc(N3CCC[C@@H]3C(F)(F)F)nn12 [Compound 1019] | ≥ 350
46 | Cn1cc2ccc(NC(=O)c3cnc4ccc(N5CCC[C@@H]5C(F)(F)F)nn34)cc2n1 [Compound 1020] | ≥ 350
47 | O=C(Nc1cccnn1)c1cnn2ccc(N3CCCCC3C(F)(F)F)nc12 (stereo not drawn) [Compound 1021] | ≥ 350
48 | O=C(Nc1cccnn1)c1cnn2ccc(N3CCCC3C(F)(F)F)nc12 (stereo not drawn) [Compound 1022] | ≥ 350
49 | O=C(Nc1cccnn1)c1cnn2ccc(N3CCCC(C(F)(F)F)C3)nc12 (stereo not drawn) [Compound 1023] | ≥ 350
50 | COc1nccc(NC(=O)c2cnn3ccc(N4CCC[C@H]4C(F)(F)F)nc23)n1 [Compound 1024] | ≥ 350
51 | O=C(Nc1ccncn1)c1cnn2ccc(N3CCC[C@H]3C(F)(F)F)nc12 [Compound 1025] | ≥ 350
52 | O=C(Nc1cccnc1)c1cnn2ccc(N3CCC[C@H]3C(F)(F)F)nc12 [Compound 1026] | ≥ 350

Row | Structure (SMILES) | Emax [%]
53 | Cc1cncc(NC(=O)c2cnn3ccc(N4CCC[C@H]4C(F)(F)F)nc23)c1 [Compound 1027] | ≥ 350
54 | O=C(Nc1cncc(F)c1)c1cnn2ccc(N3CCC[C@H]3C(F)(F)F)nc12 [Compound 1028] | ≥ 350
55 | O=C(Nc1ccccn1)c1cnn2ccc(N3CCC[C@H]3C(F)(F)F)nc12 [Compound 1029] | ≥ 350
56 | O=C(Nc1cccnn1)c1cnn2ccc(N3CCC[C@H]3C(F)(F)F)nc12 [Compound 1030] | ≥ 350
57 | Cc1nc(NC(=O)c2cnn3ccc(N4CCC[C@H]4C(F)(F)F)nc23)sc1C [Compound 1032, (S)-N-(4,5-dimethylthiazol-2-yl)-5-(2-(trifluoromethyl)pyrrolidin-1-yl)pyrazolo[1,5-a]pyrimidine-3-carboxamide] | ≥ 350
58 | Cc1cncc(NC(=O)c2c(C)nn3ccc(N4CCC[C@H]4C(F)(F)F)nc23)c1 [Compound 1036] | ≥ 350
59 | CC1CCCN1c1ccn2ncc(C(=O)Nc3ccccn3)c2n1 (stereo not drawn) [Compound 1037] | ≥ 350
60 | CC1CCCN1c1ccn2ncc(C(=O)Nc3cncc(F)c3)c2n1 (stereo not drawn) [Compound 1039] | ≥ 350
61 | CC1CCCN1c1ccn2ncc(C(=O)Nc3ccncn3)c2n1 (stereo not drawn) [Compound 1042] | < 350
62 | COc1nccc(NC(=O)c2cnn3ccc(N4CCCC4C)nc23)n1 (stereo not drawn) [Compound 1043] | < 350
63 | Cc1nn2ccc(N3CCC[C@H]3C(F)(F)F)nc2c1C(=O)Nc1cnccn1 [Compound 1046] | ≥ 350
64 | Cc1nn2ccc(N3CCC[C@H]3C(F)(F)F)nc2c1C(=O)Nc1cccnc1 [Compound 1047] | ≥ 350
65 | Cc1nn2ccc(N3CCC[C@H]3C(F)(F)F)nc2c1C(=O)Nc1cncc(F)c1 [Compound 1050] | ≥ 350
66 | C[C@H]1CCCN1c1ccc2ncc(C(=O)Nc3cnccn3)n2n1 [Compound 1054] | < 350
67 | C[C@H]1CCCN1c1ccc2ncc(C(=O)Nc3cccnc3)n2n1 [Compound 1056] | < 350
68 | C[C@H]1CCCN1c1ccc2ncc(C(=O)Nc3ccncn3)n2n1 [Compound 1057] | < 350
69 | Cc1cncc(NC(=O)c2cnc3ccc(N4CCC[C@@H]4C)nn23)c1 [Compound 1058] | < 350
70 | O=C(Nc1ccccn1)c1cnn2ccc(N3CCC(C(F)(F)F)CC3)nc12 [Compound 1060] | ≥ 350
71 | O=C(Nc1ccncn1)c1cnn2ccc(N3CCC(C(F)(F)F)CC3)nc12 [Compound 1063] | ≥ 350
72 | O=C(Nc1cncc(F)c1)c1cnn2ccc(N3CCC(C(F)(F)F)CC3)nc12 [Compound 1067] | ≥ 350
